Consider one compound from publication PMC11956013, “Structure–Activity Relationships and Evaluation of 2-(Heteroaryl-cycloalkyl)-1H-indoles as Tauopathy Positron Emission Tomography Radiotracers” (Journal of Medicinal Chemistry, 2025).

In this assay the target is T1, OX2 (h) (Homo sapiens, UniProt O43614).
T1 sequence (O43614 1-444): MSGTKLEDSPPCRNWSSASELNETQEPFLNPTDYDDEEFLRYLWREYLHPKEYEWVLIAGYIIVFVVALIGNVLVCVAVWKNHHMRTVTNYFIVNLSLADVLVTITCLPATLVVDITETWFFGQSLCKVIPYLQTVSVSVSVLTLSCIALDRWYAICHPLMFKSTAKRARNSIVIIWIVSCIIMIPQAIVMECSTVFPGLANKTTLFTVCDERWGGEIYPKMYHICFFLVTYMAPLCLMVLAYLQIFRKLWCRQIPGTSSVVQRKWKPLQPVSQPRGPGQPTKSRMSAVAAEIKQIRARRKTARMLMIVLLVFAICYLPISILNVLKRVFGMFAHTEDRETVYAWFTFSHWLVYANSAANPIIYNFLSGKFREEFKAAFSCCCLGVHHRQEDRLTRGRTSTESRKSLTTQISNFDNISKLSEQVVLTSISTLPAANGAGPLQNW
Briefly: Eurofins panel: OX2 (h) (agonist radioligand). Particulars: compound concentration 1.0E-05 M.

In the case of `Fc1nc(N2CCOCC2)ccc1-c1cc2ccccc2[nH]1` [Compound 75, 4-(6-Fluoro-5-(1H-indol-2-yl)pyridin-2-yl)morpholine], the “% Inhibition, Specific binding” value is on record as 0.786%.
